The values that follow are results of earlier work, collected in article doi:10.1101/2025.09.24.678446, “Exploiting Peptide Chirality and Transport to Dissect the Complex Mechanism of Action of Host Peptides on Bacteria” (bioRxiv, 2025).

This series concerns BacA.

In the case of bleomycin, the “transport by BacA” value is reported as “BacA has previously been shown to transport many varieties of peptides, including bleomycin”.
